Values joined by “and” are separate entries in the source; they are usually repeats but may differ in a detail not shown here. Equal entries are not always repeated. Toxic doses and inconclusive results are not listed.
Test system: nude mice, LOX melanoma ip, survival T/C
Test: NCI In Vivo Anticancer Drug Screen. Data for tumor model Human Amelanotic Melanoma (LOX) (intraperitoneal) in NU/NU BALB/C (nude) mice
Conditions: endpoint: median survival time, higher = longer survival
Method: The antitumor activity of compounds was measured in mice bearing transplantable tumors. Survival or tumor size were measured and the results are expressed as the measurement made in the treated group (T) divided by the measurement made in the vehicle treated control group (C). The tumor model used in this assay is Human Amelanotic Melanoma (LOX) (intraperitoneal) in NU/NU BALB/C (nude) mice

[1] = dose: 25.0 mg/kg/injection, schedule: Q04DX003 (ip), vehicle: saline with Tween-80
[2] = dose: 50.0 mg/kg/injection, schedule: Q04DX003 (ip), vehicle: saline with Tween-80
[3] = dose: 100.0 mg/kg/injection, schedule: Q04DX003 (ip), vehicle: saline with Tween-80
[4] = dose: 100.0 mg/kg/injection, schedule: Q04DX003 (ip), vehicle: Klucel (hydroxypropylcellulose) (HPC)
[5] = dose: 37.5 mg/kg/injection, schedule: Q04DX003 (ip), vehicle: saline with Tween-80
[6] = dose: 75.0 mg/kg/injection, schedule: Q04DX003 (ip), vehicle: saline with Tween-80
[7] = dose: 300.0 mg/kg/injection, schedule: Q04DX003 (ip), vehicle: saline with Tween-80

For `Nc1ccc(S(=O)(=O)Nc2cnc3c(Cl)cccc3n2)cc1`, the T/C (dose: 89.1 mg/kg/injection, schedule: Q06HX002 (ip), vehicle: other) was 103 % of control, the T/C (dose: 133.5 mg/kg/injection, schedule: Q01DX001 (ip), vehicle: other) was 88 % of control and the T/C (dose: 133.5 mg/kg/injection, schedule: Q01DX005 (ip), vehicle: other) was 109 % of control. For the same compound, the T/C (dose: 133.5 mg/kg/injection, schedule: Q06HX002 (ip), vehicle: other) was 103 % of control, the T/C (dose: 200.2 mg/kg/injection, schedule: Q01DX001 (ip), vehicle: other) was 98 % of control and the T/C (dose: 200.2 mg/kg/injection, schedule: Q01DX005 (ip), vehicle: other) was 114 % of control. The T/C (dose: 200.2 mg/kg/injection, schedule: Q06HX002 (ip), vehicle: other) was 114 % of control, the T/C (dose: 300.2 mg/kg/injection, schedule: Q01DX001 (ip), vehicle: other) was 104 % of control and the T/C (dose: 300.2 mg/kg/injection, schedule: Q01DX005 (ip), vehicle: other) was 116 % of control. The T/C (dose: 300.2 mg/kg/injection, schedule: Q06HX002 (ip), vehicle: other) was 111 % of control, the T/C (dose: 450.0 mg/kg/injection, schedule: Q01DX001 (ip), vehicle: other) was 110 % of control and the T/C (dose: 674.7 mg/kg/injection, schedule: Q01DX001 (ip), vehicle: other) was 119 % of control.
With `COc1c(O)cc2c(c1OC)-c1ccc(SC)c(=O)cc1C(NC(C)=O)CC2` (configuration not stated) the T/C (dose: 4.0 mg/kg/injection, schedule: Q04DX003 (ip), vehicle: other) was 114 % of control, the T/C (dose: 5.0 mg/kg/injection, schedule: Q04DX003 (ip), vehicle: Klucel (hydroxypropylcellulose) (HPC)) was 151 % of control and 252 % of control and the T/C (dose: 5.9 mg/kg/injection, schedule: Q04DX003 (ip), vehicle: other) was 111 % of control and 116 % of control. For the same compound, the T/C (dose: 8.9 mg/kg/injection, schedule: Q04DX003 (ip), vehicle: other) was 117 % of control, the T/C (dose: 10.0 mg/kg/injection, schedule: Q04DX003 (ip), vehicle: Klucel (hydroxypropylcellulose) (HPC)) was 151 % of control and 305 % of control and the T/C (dose: 20.0 mg/kg/injection, schedule: Q04DX003 (ip), vehicle: other) was 151 % of control and 156 % of control.
In the case of `O=C1c2c(O)ccc(O)c2C(=O)c2c(NCCNCCO)ccc(NCCNCCO)c21`, the T/C (dose: 0.45 mg/kg/injection, schedule: Q04DX003 (ip), vehicle: other) is reported as 168 % of control and 167 % of control, the T/C (dose: 0.75 mg/kg/injection, schedule: Q04DX003 (ip), vehicle: other) is reported as 375 % of control and 187 % of control and the T/C (dose: 1.25 mg/kg/injection, schedule: Q04DX003 (ip), vehicle: other) is reported as 256 % of control and 265 % of control. The T/C (dose: 1.25 mg/kg/injection, schedule: Q04DX003 (ip), vehicle: water) was 218 % of control, the T/C (dose: 2.0 mg/kg/injection, schedule: Q04DX003 (ip), vehicle: other) was 187 % of control and the T/C (dose: 2.08 mg/kg/injection, schedule: Q04DX003 (ip), vehicle: other) was 88 % of control. For the same compound, the T/C (dose: 2.5 mg/kg/injection, schedule: Q04DX003 (ip), vehicle: water) was 120 % of control.
With `CN(C)[C@@H]1C(=O)C(C(=O)NCN2CCN(C(=N)N=C(N)N)CC2)=C(O)[C@@]2(O)C(=O)C3=C(O)c4c(O)cccc4[C@@](C)(O)[C@H]3C[C@@H]12` the T/C (dose: 1.25 mg/kg/injection, schedule: Q04DX003 (ip), vehicle: suspension in saline) was 114 % of control, the T/C (dose: 2.5 mg/kg/injection, schedule: Q04DX003 (ip), vehicle: suspension in saline) was 107 % of control and the T/C (dose: 3.6 mg/kg/injection, schedule: Q04DX003 (ip), vehicle: suspension in saline) was 112 % of control. For the same compound, the T/C (dose: 5.0 mg/kg/injection, schedule: Q04DX003 (ip), vehicle: suspension in saline) was 114 % of control, the T/C (dose: 6.0 mg/kg/injection, schedule: Q04DX003 (ip), vehicle: suspension in saline) was 105 % of control and the T/C (dose: 10.0 mg/kg/injection, schedule: Q04DX003 (ip), vehicle: suspension in saline) was 103 % of control and 100 % of control. For the same compound, the T/C (dose: 17.0 mg/kg/injection, schedule: Q04DX003 (ip), vehicle: suspension in saline) was 112 % of control and the T/C (dose: 28.0 mg/kg/injection, schedule: Q04DX003 (ip), vehicle: suspension in saline) was 89 % of control.
With `CCC1(O)C(=O)OCc2c1cc1n(c2=O)Cc2cc3cc(N)ccc3nc2-1` (configuration not stated) the T/C (dose: 3.75 mg/kg/injection, schedule: Q04DX003 (ip), vehicle: suspension in saline) was 324 % of control, the T/C (dose: 4.0 mg/kg/injection, schedule: Q04DX003 (ip), vehicle: saline) was 189 % of control and the T/C (dose: 7.0 mg/kg/injection, schedule: Q04DX003 (ip), vehicle: saline) was 355 % of control. The T/C (dose: 7.5 mg/kg/injection, schedule: Q04DX003 (ip), vehicle: suspension in saline) was 324 % of control, the T/C (dose: 12.0 mg/kg/injection, schedule: Q04DX003 (ip), vehicle: saline) was 355 % of control and the T/C (dose: 15.0 mg/kg/injection, schedule: Q04DX003 (ip), vehicle: suspension in saline) was 324 % of control. The T/C (dose: 20.0 mg/kg/injection, schedule: Q04DX003 (ip), vehicle: saline) was 355 % of control and the T/C (dose: 33.0 mg/kg/injection, schedule: Q04DX003 (ip), vehicle: saline) was 355 % of control.
`Cc1ccoc1` was tested, and the T/C [1] was 94 % of control, the T/C [2] was 95 % of control and the T/C [3] was 102 % of control. The T/C (dose: 200.0 mg/kg/injection, schedule: Q04DX003 (ip), vehicle: saline with Tween-80) was 95 % of control and the T/C (dose: 400.0 mg/kg/injection, schedule: Q04DX003 (ip), vehicle: saline with Tween-80) was 96 % of control.
For `CN=C(N)N/N=C(\C)c1ccc2oc3ccc(/C(C)=N/NC(N)=NC)cc3c2c1`, the T/C (dose: 18.0 mg/kg/injection, schedule: Q04DX003 (ip), vehicle: Klucel (hydroxypropylcellulose) (HPC)) was 102 % of control and 123 % of control, the T/C (dose: 30.0 mg/kg/injection, schedule: Q04DX003 (ip), vehicle: Klucel (hydroxypropylcellulose) (HPC)) was 117 % of control and 99 % of control and the T/C (dose: 83.0 mg/kg/injection, schedule: Q04DX003 (ip), vehicle: Klucel (hydroxypropylcellulose) (HPC)) was 116 % of control. The T/C (dose: 83.33 mg/kg/injection, schedule: Q04DX003 (ip), vehicle: Klucel (hydroxypropylcellulose) (HPC)) was 88 % of control and the T/C [4] was 108 % of control.
`Cc1ccc2nc(-c3ccc4nc(-c5ccc(N=Nc6ccc(-c7nc8ccc(-c9nc%10ccc(C)c(S(=O)(=O)O)c%10s9)cc8s7)cc6)cc5)sc4c3)sc2c1S(=O)(=O)O` was tested, and the T/C (dose: 75.0 mg/kg/injection, schedule: Q04DX003 (ip), vehicle: suspension in saline) was 92 % of control and the T/C (dose: 150.0 mg/kg/injection, schedule: Q04DX003 (ip), vehicle: suspension in saline) was 96 % of control.
With `CN=C(N)N/N=C(\C)c1ccc2sc3ccc(/C(C)=N/NC(N)=NC)cc3c2c1` the T/C [5] was 121 % of control, the T/C [6] was 117 % of control and the T/C [7] was 182 % of control. The T/C (dose: 600.0 mg/kg/injection, schedule: Q04DX003 (ip), vehicle: saline with Tween-80) was 116 % of control.
With `COc1ccc(/C=C/C(=O)c2ccccc(=O)c2O)c(OC)c1OC` the T/C (dose: 6.85 mg/kg/injection, schedule: Q04DX003 (ip), vehicle: Klucel (hydroxypropylcellulose) (HPC)) was 100 % of control, the T/C (dose: 13.7 mg/kg/injection, schedule: Q04DX003 (ip), vehicle: Klucel (hydroxypropylcellulose) (HPC)) was 100 % of control and the T/C (dose: 27.5 mg/kg/injection, schedule: Q04DX003 (ip), vehicle: Klucel (hydroxypropylcellulose) (HPC)) was 110 % of control. The T/C (dose: 55.0 mg/kg/injection, schedule: Q04DX003 (ip), vehicle: Klucel (hydroxypropylcellulose) (HPC)) was 104 % of control and the T/C (dose: 110.0 mg/kg/injection, schedule: Q04DX003 (ip), vehicle: Klucel (hydroxypropylcellulose) (HPC)) was 110 % of control.
For `c1ccc(OCC2CO2)c(OCC2CO2)c1` (configuration not stated), the T/C [5] was 118 % of control, the T/C [6] was 109 % of control and the T/C [7] was 265 % of control.
`CC1/C=C/C=C/CC/C=C/C=C/C=C/C=C/C(OC2OC(C)C(O)C(N)C2O)CC2OC(CC(O)C(O)CCC(O)CC(O)CC(O)CC(=O)OC(C)C(C)C1O)CC(O)C2C(=O)O` (configuration not stated) was tested, and the T/C [1] was 101 % of control, the T/C [2] was 101 % of control and the T/C [3] was 111 % of control.
With `NNC(=O)c1ccncc1` the T/C (dose: 18.75 mg/kg/injection, schedule: Q04DX003 (ip), vehicle: saline) was 110 % of control and the T/C (dose: 37.5 mg/kg/injection, schedule: Q04DX003 (ip), vehicle: saline) was 109 % of control.
`CCOC(=O)c1c[nH]c2ccc3c(nc(C)n3C)c2c1=O` was tested, and the T/C (dose: 50.0 mg/kg/injection, schedule: Q04DX003 (ip), vehicle: Klucel (hydroxypropylcellulose) (HPC)) was 100 % of control, the T/C [4] was 104 % of control and the T/C (dose: 200.0 mg/kg/injection, schedule: Q04DX003 (ip), vehicle: Klucel (hydroxypropylcellulose) (HPC)) was 93 % of control. For the same compound, the T/C (dose: 400.0 mg/kg/injection, schedule: Q04DX003 (ip), vehicle: Klucel (hydroxypropylcellulose) (HPC)) was 100 % of control and the T/C (dose: 800.0 mg/kg/injection, schedule: Q04DX003 (ip), vehicle: Klucel (hydroxypropylcellulose) (HPC)) was 94 % of control.
With `CCCCCCCCCCCCCCCCCCOCC(CO)OC` (configuration not stated) the T/C (dose: 150.0 mg/kg/injection, schedule: Q04DX003 (ip), vehicle: saline with Tween-80) was 150 % of control and 151 % of control and the T/C [7] was 160 % of control.

— PubChem BioAssay AID280 (DTP/NCI, 2004)
